A short description of data set [1]: in vitro. The conditions noted are these: PAMPA, PAMPA_Papp_Avg.
For data set [2] the following is noted: PAMPA. On the technique in general: In PAMPA a lipid-coated filter parts donor from acceptor wells.
The nature of data set [3]: Caco-2 permeability assay (apical to basolateral). The class given is in vitro ADME, human. Conditions: for Papp A→B: Caco-2, Caco_Papp_Average; for Papp at 90 min, 50 µM: human, Caco-2. Here is the method: (§1) Human colon adenocarcinoma-derived Caco-2 cell line was used as a model system to investigate the intestinal epithelial permeability of our designs. Caco-2 cells were propagated in T125 flasks (Corning, Merck) using Dulbecco’s modified Eagle medium supplemented with 10% (v/v) fetal bovine serum, 1% (v/v) nonessential amino acids, and 1% (v/v) penicillin-streptomycin (Gibco, Thermo Fisher Scientific) at 37°C in an atmosphere of 5% CO2. Cells were subcultured when they reached 80% confluence.
(§2) The permeability of designed peptides was evaluated using an accelerated 6-day Caco-2 permeability assay as described previously ([Sevin et al., 2013]). In brief, cells were seeded into the 12-well Transwell plates with 0.4 μm polyester membrane inserts (Corning, Merck) to give 4.0 × 10^5 cells/well. The complete assay medium contained Dulbecco’s modified Eagle medium supplemented with 10% (v/v) fetal bovine serum, 1% (v/v) nonessential amino acids, and 0.4 μg/mL puromycin. The medium in plates was renewed every second day. The inserts received 0.75 mL of assay medium in the upper compartment (apical chamber) and 1.5 mL in the bottom compartment (basolateral chamber) individually. After 6-day incubation or until the cells formed monolayers, the medium in the apical and basolateral chamber was replaced with peptide solutions at 50 μM or Hanks' Balanced Salt Solution (HBSS), separately. The plates were incubated for 90 min at 37°C on an orbital shaker (60 rpm). The peptide concentration of solutions in the apical and basolateral compartments was subsequently quantified using LC-MS (Qstar Elite, AB Sciex Australia) to evaluate the transmembrane flux of peptides in the apical-to-basolateral direction. Membrane integrity of the Caco-2 cell monolayer was validated using trans-epithelial electrical resistance (TEER) measurements before and after the assays. Atenolol and quinidine were included as negative and positive controls in all assays.

Data set [4] relates to Caco-2 cells. The data set is described as follows: Caco-2 permeability assay (apical to basolateral). The class given is in vitro ADME, human. The conditions noted are these: Caco-2. On the procedure:
as §1, §2

Where a SMILES comes first, the peptide text is derived from it. [ ]: non-standard residue; d: D form. ξ: configuration not given here. dNMeI = CC[C@@H](C)[C@@H](NC)C(=O)O; NMeF = CN[C@@H](Cc1ccccc1)C(=O)O; dIle(3ξ) = CCC(C)[C@@H](N)C(=O)O; dNMeF = CN[C@H](Cc1ccccc1)C(=O)O; NMeL = CN[C@@H](CC(C)C)C(=O)O; dNMeL = CN[C@H](CC(C)C)C(=O)O; NMeA = CN[C@@H](C)C(=O)O; dNMeA = CN[C@H](C)C(=O)O; Aib = CC(C)(N)C(=O)O

Usually Papp stands for a coefficient for how fast a substance crosses the barrier. Usually Papp A→B stands for how fast a substance crosses the layer from the apical side. The low end stands for slow passage, the high end for fast passage. In turn, `CC[C@H](C)[C@@H]1NC(=O)[C@@H](CC(C)C)NC(=O)[C@@H](C)N(C)C(=O)[C@H](Cc2ccccc2)NC(=O)[C@@H](CC(C)C)NC(=O)[C@@H](C)N(C)C(=O)[C@@H]2CCCN2C(=O)[C@H](C(C)C)NC(=O)[C@H]2CCCN2C(=O)[C@@H]2CCCN2C1=O` [Design D10.31, PHE *DALA DLEU ILE PRO DPRO VAL PRO *DALA DLEU] (cyclo(F[dNMeA][dL]IP[dP]VP[dNMeA][dL])) came in with a Papp in data set [1] of 19 nm/s. In data set [2], this compound had a PAMPA_R1 of 1.81E-06 and a PAMPA_R3 of 2.20E-06. In data set [3], this compound gave a Papp A→B of 27.9 nm/s. For the same compound, in data set [4], the Caco_R1 came to 1.93 and the Caco_R3 stood at 3.02.
For the compound `CC(C)C[C@@H]1NC(=O)[C@H](Cc2ccccc2)NC(=O)[C@@H](CC(C)C)NC(=O)[C@H]2CCCN2C(=O)[C@H](C(C)C)NC(=O)[C@@H](CC(C)C)NC(=O)[C@H]2CCCN2C(=O)[C@@H]2CCCN2C1=O` [Design D8.5.p2, PHE LEU PRO DPRO DLEU VAL DPRO DLEU] (cyclo(FLP[dP][dL]V[dP][dL])), in data set [1], the Papp is 58 nm/s. In data set [2], this compound came in with a PAMPA_R1 of 5.46E-06 and a PAMPA_R3 of 5.67E-06. In addition, in data set [3], the apical-to-basolateral permeability (Papp A→B) was 214 nm/s. In addition, in data set [4], the Caco_R1 came to 17.839 and the Caco_R3 is 20.36.
As to `CC[C@@H](C)[C@H]1NC(=O)[C@H]([C@@H](C)CC)NC(=O)[C@H](Cc2ccccc2)N(C)C(=O)[C@H]2CCCN2C(=O)[C@@H]([C@H](C)CC)NC(=O)[C@@H]([C@H](C)CC)N(C)C(=O)[C@H](CC(C)C)NC(=O)[C@H]2CCCN2C(=O)[C@@H]2CCCN2C(=O)[C@H](C(C)C)NC(=O)[C@H]2CCCN2C1=O` [Design D11.4, VAL PRO DPRO LEU *DILE DILE DPRO *PHE ILE DILE DPRO] (cyclo(I[dI][dP]VP[dP]L[dNMeI][dI][dP][NMeF])), in data set [1], the Papp worked out at 14.7 nm/s. Also, in data set [2], the PAMPA_R1 is listed as 1.64E-06 and the PAMPA_R3 turned out to be 6.73E-07. Further, the Papp A→B in data set [3] turned out to be 49.9 nm/s. In data set [4], this compound displayed a Caco_R1 of 3.83 and a Caco_R3 of 6.55.
In the case of `CC[C@H](C)[C@@H]1NC(=O)[C@@H](CC(C)C)NC(=O)[C@H](CC(C)C)N(C)C(=O)[C@H](Cc2ccccc2)NC(=O)CN(C)C(=O)[C@@H]2CCCN2C(=O)[C@H](C(C)C)NC(=O)[C@H](Cc2ccccc2)N(C)C(=O)[C@H]2CCCN2C(=O)[C@H](CC(C)C)NC1=O` (single isomer, unassigned) [Design D10.1.p1, DLEU ILE LEU DPRO *PHE VAL PRO *GLY PHE *LEU], the Papp in data set [1] was 39.2 nm/s. In data set [2], this compound gave a PAMPA_R1 of 4.75E-06 and a PAMPA_R3 of 3.42E-06. This compound returned a Papp A→B in data set [3] of 86.5 nm/s. Further, in data set [4], the Caco_R1 came out at 8.51 and the Caco_R3 is on record as 8.51.
The compound `CC[C@@H](C)[C@H]1NC(=O)[C@H](CC(C)C)N(C)C(=O)[C@H]2CCCN2C(=O)[C@H](CC(C)C)NC(=O)[C@H](Cc2ccccc2)N(C)C(=O)[C@H](CC(C)C)N(C)C(=O)[C@@H](C(C)C)NC(=O)[C@H](C)NC(=O)[C@H]2CCCN2C(=O)[C@@H]2CCCN2C1=O` [Design D10.17.p2, *LEU *PHE LEU DPRO *LEU DILE PRO DPRO ALA DVAL] returned a Papp in data set [1] of 26.9 nm/s. In data set [2], this compound displayed a PAMPA_R1 of 3.37E-06 and a PAMPA_R3 of 2.91E-06. This compound came in with a Papp A→B in data set [3] of 87 nm/s. In data set [4], this compound came in with a Caco_R1 of 12.57 and a Caco_R3 of 7.84.
Regarding `CC[C@@H](C)[C@H]1NC(=O)[C@H](Cc2ccccc2)NC(=O)[C@@H](CC(C)C)N(C)C(=O)[C@@H]2CCCN2C(=O)[C@@H](C(C)C)NC(=O)[C@@H](C)N(C)C(=O)[C@H]2CCCN2C(=O)[C@@H](CC(C)C)NC(=O)[C@H](CC(C)C)NC(=O)[C@@H]2CCCN2C1=O` [Design D10.30, PRO *DLEU PHE DILE PRO LEU DLEU DPRO *DALA DVAL] (cyclo(F[dI]PL[dL][dP][dNMeA][dV]P[dNMeL])), in data set [1], the Papp was 47.8 nm/s. Also, in data set [2], the PAMPA_R1 came to 5.23E-06 and the PAMPA_R3 is on record as 4.05E-06. In data set [3], this compound gave a Papp A→B of 161 nm/s and an apparent permeability (Papp) at 90 min, 50 µM of over 100 nm/s. In data set [4], this compound showed a Caco_R1 of 15.3 and a Caco_R3 of 15.5.
In the case of `CC[C@@H](C)[C@H]1NC(=O)[C@@H](Cc2ccccc2)NC(=O)[C@@H](CC(C)C)NC(=O)[C@@H]2CCCN2C(=O)[C@H]2CCCN2C(=O)[C@H](CC(C)C)NC(=O)[C@H](CC(C)C)NC(=O)[C@@H](CC(C)C)N(C)C(=O)[C@H](C)N(C)C(=O)[C@H]2CCCN2C1=O` [Design D10.34, DPHE DILE DPRO *ALA *DLEU LEU LEU DPRO PRO DLEU] (cyclo([dL][dF][dI][dP][NMeA][dNMeL]LL[dP]P)), the Papp in data set [1] turned out to be 45.1 nm/s. Moreover, in data set [2], the PAMPA_R1 was 4.77E-06 and the PAMPA_R3 is 4.57E-06. In data set [3], the Papp A→B was determined as 150 nm/s and the apparent permeability (Papp) at 90 min, 50 µM is over 100 nm/s. Besides, in data set [4], the Caco_R1 worked out at 14.68 and the Caco_R3 came out at 14.14.
Turning to `CC(C)C[C@@H]1NC(=O)[C@H]2CCCN2C(=O)[C@@H]2CCCN2C(=O)[C@H](CC(C)C)NC(=O)[C@@H](CC(C)C)NC(=O)[C@@H](C)N(C)C(=O)[C@@H](C)N(C)C(=O)[C@@H](C(C)C)NC1=O` [Design D8.6, LEU PRO DPRO LEU DVAL *DALA *DALA DLEU] (cyclo(LP[dP]L[dV][dNMeA][dNMeA][dL])), the Papp in data set [1] was 33.5 nm/s. In data set [2], this compound came in with a PAMPA_R1 of 3.54E-06 and a PAMPA_R3 of 3.44E-06. The same compound registered a Papp A→B in data set [3] of 7.37 nm/s. In addition, in data set [4], the Caco_R1 turned out to be 0.86 and the Caco_R3 is 0.45.
For the compound `CC[C@@H](C)[C@H]1NC(=O)[C@H](C)N(C)C(=O)[C@H]([C@@H](C)CC)NC(=O)[C@H]2CCCN2C(=O)[C@H](CC(C)C)N(C)C(=O)[C@@H](C(C)C)NC(=O)[C@H](C)N(C)C(=O)[C@H]([C@@H](C)CC)NC(=O)[C@@H](CC(C)C)NC(=O)[C@@H]2CCCN2C(=O)[C@H]2CCCN2C1=O` [Design D11.10, DPRO ILE *ALA DILE DPRO PRO DLEU ILE *ALA DVAL *LEU] (cyclo([dL]I[NMeA][dV][NMeL][dP]I[NMeA][dI][dP]P)), the Papp in data set [1] stood at 24.5 nm/s. In data set [2], this compound gave a PAMPA_R1 of 2.19E-06 and a PAMPA_R3 of 3.23E-06. The Papp A→B in data set [3] worked out at 45.4 nm/s. Further, in data set [4], the Caco_R1 was 4.35 and the Caco_R3 came to 4.8.
The compound `CC[C@@H](C)[C@H]1NC(=O)[C@H](CC(C)C)NC(=O)[C@@H](CC(C)C)NC(=O)[C@H](C(C)C)NC(=O)[C@@H](Cc2ccccc2)N(C)C(=O)[C@@H]2CCCN2C(=O)[C@@H](CC(C)C)NC(=O)[C@H](CC(C)C)N(C)C(=O)[C@H]2CCCN2C1=O` [Design D9.3, LEU DILE DPRO *LEU DLEU PRO *DPHE VAL DLEU] (cyclo(L[dI][dP][NMeL][dL]P[dNMeF]V[dL])) showed a Papp in data set [1] of 23.3 nm/s. In data set [2], this compound yielded a PAMPA_R1 of 3.06E-06 and a PAMPA_R3 of 2.01E-06. The compound further yielded an apparent permeability from apical to basolateral (Papp A→B) in data set [3] of 35.3 nm/s. For the same compound, in data set [4], the Caco_R1 came out at 2.82 and the Caco_R3 is 3.81.
`CC[C@@H](C)[C@H]1NC(=O)[C@@H](CC(C)C)NC(=O)C(C)(C)NC(=O)[C@@H]2CCCN2C(=O)[C@@H]([C@H](C)CC)NC(=O)[C@@H](CC(C)C)NC(=O)C(C)(C)NC(=O)[C@@H]2CCCN2C1=O` [Design D8.2, PRO AIB DLEU DILE PRO AIB DLEU DILE] (cyclo([Aib][dL][dI]P[Aib][dL][dI]P)) gave an apparent permeability (Papp) in data set [1] of 74.9 nm/s. In data set [2], this compound registered a PAMPA_R1 of 7.36E-06 and a PAMPA_R3 of 1.04E-05. Also, the Papp A→B in data set [3] stood at 117 nm/s. Further, in data set [4], the Caco_R1 amounted to 8.98 and the Caco_R3 was determined as 13.19.
Regarding `CCC(C)[C@H]1NC(=O)[C@H](CC(C)C)NC(=O)[C@@H](C)N(C)C(=O)[C@@H]2CCCN2C(=O)[C@H](C)NC(=O)[C@@H](CC(C)C)NC(=O)[C@H]2CCCN2C(=O)[C@H](C(C)C)NC(=O)[C@@H](CC(C)C)N(C)C1=O` (stereo partly drawn) [Design D9.30, DPRO DLEU ALA PRO *DALA LEU DILE *DLEU VAL] (cyclo(AP[dNMeA]L[dIle(3ξ)][dNMeL]V[dP][dL])), the Papp in data set [1] is 16 nm/s. For the same compound, in data set [2], the PAMPA_R1 is 1.58E-06 and the PAMPA_R3 came to 1.58E-06. In addition, the Papp A→B in data set [3] turned out to be 23.2 nm/s. In data set [4], this compound displayed a Caco_R1 of 1.9 and a Caco_R3 of 2.72.

The values are drawn from PMC9490236, “Accurate de novo design of membrane-traversing macrocycles” (Cell, 2022).
